Results reported in patent publication US9925139B2, “Pharmaceutical compositions for acute glucocorticoid therapy” (ACUCORT AB, priority 2004, dated 2018).

How the values were obtained:
[1] = In vivo plasma cortisol profile in healthy volunteers with suppressed endogenous cortisol, oral mucosal administration; design: species or system human
Experimental: The in vivo experiments reported herein were carried out on healthy volunteers. At 6 pm and 11 pm the day before administration of the test composition, the endogenous cortisol secretion was suppressed by oral administration of 2 mg of betamethasone. The test composition was administered to healthy volunteers. The volunteers were in fasted state and were not allowed to take any food until noon. In the case a tablet is administered, it is ingested together with 200 ml of water. The test composition is administered between 8 am and 10 am on the day following the suppression of endogenous glucocorticoid secretion.
In vivo plasma profiles in humans, N=1 per composition
Dexamethasone suppression test, fasting state, otherwise as described in the paragraph denoted “Method”.
Two films were prepared essentially similar to Example 13—composition A. Film A contains 10 mg of hydrocortisone and film B contains 11.2 mg of hydrocortisone acetate.
The hydrocortisone compositions were tested in two human subjects after labial administration. The subjects had their endogenous glucocorticoid secretion suppressed by synthetic glucocorticoids. The plasma concentration of cortisol was monitored during 360 min after the labial administration, and the serum concentration time profiles from these two subjects are shown in FIGS. 6 and 7.
The compositions were tested after oral administration to two human subjects (see FIG. 8).

[2] = cited from earlier work; for Equivalent amount: dose equivalent for glucocorticoid therapy; for Hydrocortisone equivalent (1 mg of the glucocorticoid corresponds to the listed amount in mg of hydrocortisone): per 1 mg of the glucocorticoid

With `CC(=O)OCC(=O)[C@@]1(O)CC[C@H]2[C@@H]3CCC4=CC(=O)CC[C@]4(C)[C@H]3[C@@H](O)C[C@@]21C` [hydrocortisone acetate] the “Suitability for an immediate release composition (in vivo plasma profiles)” value ([1]; Example 11 thin-layer films, humans, N=1 per composition, fasting state, FIGS. 1-3) was “does not seem to be suitable for an immediate release composition”.
In the case of `CC(=O)OCC(=O)[C@@]1(O)CC[C@H]2[C@@H]3CCC4=CC(=O)CC[C@]4(C)[C@H]3C(=O)C[C@@]21C` [Cortisone acetate], the “Equivalent amount” value [2] is listed as 25 mg and the “Hydrocortisone equivalent (1 mg of the glucocorticoid corresponds to the listed amount in mg of hydrocortisone)” value (from here on “Hydrocortisone equivalent”) [2] is listed as 0.8 mg.
For `C[C@]12C=CC(=O)C=C1CC[C@@H]1[C@@H]2[C@@H](O)C[C@@]2(C)[C@H]1CC[C@]2(O)C(=O)CO` [Prednisolone], the “Equivalent amount” value [2] is listed as 5 mg and the “Hydrocortisone equivalent” value [2] is listed as 4 mg.
In the case of `C[C@]12C=CC(=O)C=C1CC[C@H]1[C@@H]3C[C@@H](O)[C@](O)(C(=O)CO)[C@@]3(C)C[C@H](O)[C@@]12F` [Triamcinolone], the “Equivalent amount” value [2] is given as 4 mg and the “Hydrocortisone equivalent” value [2] is given as 5 mg.
In the case of `C[C@@H]1C[C@H]2[C@@H]3C[C@H](F)C4=CC(=O)C=C[C@]4(C)[C@H]3[C@@H](O)C[C@]2(C)[C@@]1(O)C(=O)CO` [Paramethasone], the “Equivalent amount” value [2] is given as 2 mg and the “Hydrocortisone equivalent” value [2] is given as 10 mg.
For `C[C@]12CCC(=O)C=C1CC[C@@H]1[C@@H]2[C@@H](O)C[C@@]2(C)[C@H]1CC[C@]2(O)C(=O)CO` [Hydrocortisone], the “Time at which first measured plasma concentration was attained” value ([1]; Example 13 films, 10 mg hydrocortisone, labial administration, two human subjects) is listed as 10 to 15 min, the “Rate and extent of mucosal uptake” value ([1]; Example 13 films, 10 mg hydrocortisone, labial administration, two human subjects, FIGS. 6 and 7) is listed as “high” and the “Equivalent amount” value [2] is listed as 20 mg. For the same molecule, the “Hydrocortisone equivalent” value [2] was 1 mg.
